Results on six compounds are retold here after patent publication US6962930B1, “Compounds, compositions and method suitable for amelioration of withdrawal syndromes and withdrawal-induced brain damage” (Lohocla Research Corporation, priority 1997, dated 2005).

One data set has as its system naive C57BL/6 mice. As to the kind of experiment: Accelerating rotarod, C57BL/6 mice. In kind it is in vivo. Conditions: 50 mg/kg i.p., 15 to 120 min after injection. The procedure:
Naive C57BL/6 mice were trained to remain on an accelerating rotarod (diameter 3 cm, 0–30 rpm over 5 min) for six consecutive trials. A description of this test for the acute incoordinating/ataxic effects of sedative/hypnotic drugs such as ethanol can be found in Hoffman, P. L., et al., Life Sciences, 41 611–619 (1987), the relevant disclosures of which are incorporated herein by reference.
The amount of time the mice remained on the rotarod during their last trial was used as their “base-line” score. The mice were then treated with saline (n=10) or 50 mg/kg (±)HA-966 (n=5). The length of time the mice remained on the rotarod was redetermined at 15, 30, 60, 90, and 120 min after drug injection (i.p.). Results for each mouse at each time point were expressed as a ratio (percentage) of their pre-injection base-line time.

In data set [1] the test system is ethanol withdrawal-induced seizures in C57BL/6 mice. As to the kind of experiment: Ethanol withdrawal-induced seizures. The class given is in vivo. Conditions: i.p. at 0700, 1100 and 1400 hours; (±)HA-966 3, 10 or 17 mg/kg; 7-Cl kynurenic acid 10, 17 or 30 mg/kg; carbamazepine 17, 30 or 50 mg/kg. An excerpt: Male C57BL/6 mice were housed individually. One group of mice were each given a measured amount of liquid diet (BioServ) containing 6.7% ethanol (v/v) and a second, control group of mice each received the same diet with maltodextrin substituted isocalorically for ethanol, as their sole nutrient source for 7 days. A description of such a test can be found in Grant, K. A., et al., “ETHANOL WITHDRAWAL SEIZURES AND THE NMDA RECEPTOR COMPLEX,” Eur. J. Pharmacol., 176 289–296, (1990), the relevant disclosures of which are incorporated herein by reference. Pair-fed mice were given a volume of liquid diet equal to the average volume that the ethanol-fed mice consumed on the previous day. This treatment regimen produces mice that are functionally tolerant to and physically dependent on ethanol. Beginning at 0700 hours on the eighth day of the diet, ethanol-containing diet was replaced with control liquid diet (“withdrawal”).
Withdrawal seizure severity was assessed by measuring the incidence of handling-induced and spontaneous seizures, which were rated on a rating scale of 0 to 4, modified from a rating scale described by Grant, K. A., et al. in the above cited article. The rating scale was as follows: 0, little or no reaction; 1, slight jerkiness upon handling; 2, excitability increasing in magnitude to a clonic-tonic seizure; 3, spontaneous or instantaneous clonic-tonic seizure; 4, death while in a seizure. The mice were rated for seizure severity at 2, 4, 6, 7, 8, 9, 10, 11, 12 and 24 hours after ethanol withdrawal. Groups of ethanol-fed mice were injected intraperitoneally at 0700, 1100 and 1400 hours with saline, 3, 10 or 17 mg/kg (±)HA-966 (FIG. 5A) or 10, 17 or 30 mg/kg 7-Cl kynurenic acid (FIG. 5B).
Male C57BL/6 mice were fed ethanol in a liquid diet and the withdrawal seizure severity was assessed as described in EXAMPLE 5. Groups of ethanol-fed mice received a single injection (i.p.) of either vehicle (4% Tween-80, 0.5% carboxymethylcellulose in 0.9% saline) alone or of 100 mg/kg DCUK-OMe suspended in the vehicle administered at 0900 hours. The results are presented in FIG. 6A as the median withdrawal scores of vehicle-injected (N=14) or DCUK-OMe injected (N=6) mice in which * denotes P<0.05, statistically compared to vehicle-injected mice, in the Mann-Whitney U test. FIG. 6B presents the same data as the total withdrawal score, defined as the area enclosed by the curve connecting median withdrawal scores plotted against time as in FIG. 6A. The mean total withdrawal scores±SEM for the vehicle-injected group and DCUK-OMe-injected groups are plotted in which * denotes P<0.05, statistically compared to vehicle-injected mice, by the Student t-test.

The next data set relates to naive Swiss-Webster mice. As to the kind of experiment: Accelerating rotarod, Swiss-Webster mice. The note with it: i.p.; DCUK-OMe 100 or 500 mg/kg, diazepam 1 mg/kg, carbamazepine 50 mg/kg.
The next data set concerns Swiss-Webster mice. As to the kind of experiment: Ethanol-induced loss of righting reflex. In kind it is in vivo. The note with it: i.p. 30 minutes before ethanol; DCUK-OMe 100 mg/kg, DZP 1 mg/kg. The procedure:
Swiss-Webster mice were pretreated (i.p.) with 100 mg/kg DCUK-OMe or 1 mg/kg diazepam (DZP) (in 5% Tween-80, 20% Intralipid) 30 minutes before receiving an i.p. administration of ethanol (either 2.3 or 3.2 g/kg, 20% v/v in saline.). The duration of the ethanol-induced loss of righting reflex (defined as the inability of the mouse to right itself when placed on its back in a trough) was measured. […] Since withdrawal signs are many times evident in individuals whose blood ethanol levels are dropping but are far from zero, the DCUK compounds would have an advantage over DZP in that the CNS depressant effects of ethanol would not be accentuated by DCUK compounds if the DCUK compounds are used in an alcohol-intoxicated individual.

The target in data set [2] is voltage-sensitive sodium channels. As to the kind of experiment: [3H]BTX binding to rat cortical synaptosomes.
Data set [3] addresses T1, NR1a/NR2B recombinant receptors (Homo sapiens, UniProt Q05586).
T1 construct: expressed in transfected cells; host or cells: Xenopus laevis oocytes, nuclear cDNA injection
As to the kind of experiment: NMDA-induced currents in oocytes expressing NR1a/NR2B. The class given is cell-based. The note with it: 100 μM NMDA, 50 μM DCUKA, increasing glycine. Here is the method: (§1) Oocytes were obtained from Xenopus laevis frogs (Nasco or Xenopus I) kept in aquarium tanks at 19–21° C., on a 12 hr light/dark cycle. Mature females were anesthetized by immersion for approximately 30 min in a 0.12% 3-aminobenzoic acid ethyl ester solution, a small incision was made in the abdominal wall and a piece of ovary was removed and placed in Modified Barth's solution (MBS; in mM) containing 88 NaCl, 1 KCl, 10 HEPES, 0.82 MgSO4, 2.4 NaHCO3, 0.91 CaCl2, 0.33 Ca(NO3)2 (pH 7.5). To facilitate manual dissection of oocytes, a section of ovary was transferred from MBS to a hypertonic buffer containing 108 mM NaCl, 2 mM KCl, 2 mM EDTA, 10 mM HEPES, pH 7.5 and theca and epithelial layers of mature oocytes (stages V and VI) were removed with surgical forceps. The follicular layer was removed by a 10 min immersion in 0.5 mg/ml of collagenase in buffer containing 83 mM NaCl, 2 mM KCl, 1 mM MgCl2 and 5 mM HEPES.
(§2) Human NR1a, NR2A and NR2B cDNAs in pCDNA-1Amp were transformed and amplified in XL-1 Blue cells and purified with the MaxPrep Qiagen kit. Oocytes were injected with cDNA into the nucleus in the following concentrations: NR1a/2A cDNAs 0.75 ng/30 nl 1:1 ratio, NR1a/2B cDNAs 3.0 ng/30 nl: 1:1 ratio. Injections were made with micropipettes (10 μm tip diameter) connected to a Drummond micropipettor attached to a micromanipulator. After injection, oocytes were individually placed in wells of 96-well microtiter plates containing incubation medium (MBS supplemented with 10 mg/l streptomycin, 10,000 U/l penicillin G, 50 mg/l gentamicin, 2 mM sodium pyruvate, 0.5 mM theophylline) that had been sterilized by passage through a […]. Oocytes were incubated at 19° C. for 2 to 4 days after injection.
(§3) Oocytes were placed in a rectangular chamber (approximately […]) and perfused (2 ml/min) with frog Ringer (in mM) containing 115 NaCl, 2.5 KCl, 1.8 CaCl2, 10 HEPES (pH 7.2). […] Control responses were always measured before and after addition of the DCUKA. […] Data are expressed as the % inhibition of the agonist response obtained in the absence of the drug.

Data set [4] deals with T2, NR1a/NR2A recombinant receptors (Homo sapiens, UniProt Q05586).
T2 construct: expressed in transfected cells; host or cells: Xenopus laevis oocytes, nuclear cDNA injection
As to the kind of experiment: NMDA-induced currents in oocytes expressing NR1a/NR2A. The class given is cell-based. Conditions: 100 μM NMDA, 50 μM DCUKA, increasing glycine up to 100 μM. Here is the method:
as §1, §2, §3

For data set [5], the target named is T3, strychnine-insensitive glycine binding site on the NMDA receptor (Rattus norvegicus, UniProt P35439).
T3 construct: from tissue; host or cells: rat cerebral cortex, crude synaptic (buffy coat) membranes
As to the kind of experiment: [3H]5,7-DCKA binding to rat cortical membranes. Conditions: 20 nM [3H]5,7-DCKA. Here is the method:
Male Sprague-Dawley rats were killed, their brains removed, and their cerebral cortices dissected and binding of [^3H]5,7-dichlorokynurenate ([^3H]5,7-DCKA) assayed. [^3H]5,7-DCKA binding assays were performed in crude synaptic membranes prepared by a modification of the method of Jones, et al., J. Pharmacol. Methods, 21 161–168 (1989) the relevant disclosures of which are incorporated herein by reference. The pelleted “buffy coat”fraction was obtained by centrifugation and frozen at about −80° C. for at least 18 hours. On the day that the binding assays were performed, the pelleted membranes were resuspended in 50 mM HEPES-KOH buffer (pH 7.8) containing 0.08% TRITON® X-100. After stirring for about 30 min at about 4° C., the membranes were pelleted by recentrifugation and then washed twice by resuspension in buffer and centrifugation.
Binding assays were performed in 0.5 ml volume using 150–200 μg of tissue, 20 nM [^3H]5,7-DCKA and 3–300 μM DCUKA or MeO-DCUKA or 1–100 μM DCUK-OMe (all concentrations are final concentrations in 0.6% dimethyl sulfoxide (DMSO)). Incubations were performed for about 45 min at about 4° C. followed by termination by centrifugation. Bound radioactivity was quantitated by liquid scintillation spectroscopy. Non-specific binding was defined with 1 mM glycine.

For data set [6], the target named is T3, strychnine-insensitive glycine binding site on the NMDA receptor. The note with it: none* = no displacement at 64 μM carbamazepine; taken from McCabe et al. 1993; cited from earlier work.
Data set [7] has as its system heat shock protein (HSP72) in the hippocampus of C57BL/6 mice. As to the kind of experiment: KA-induced increase in HSP72, Western blot. The class given is in vivo. The note with it: 100 mg/kg i.p. 30 min before KA 30 mg/kg i.p., hippocampus at 24 hours. Here is the method:
See, for example, Gonzales, M. F. et al., “HEAT SHOCK PROTEINS AS MARKERS OF NEURAL INJURY,” Mol. Brain Res., 6 93–100 (1989), the relevant portions of which are incorporated herein by reference.
Groups of male C57BL/6 mice separately received either (1) no injections (Naive), (2) KA injections (30 mg/kg, i.p.), (3) 100 mg/kg MeO-DCUKA administered intraperitoneally, or (4) a pretreatment of 100 mg/kg MeO-DCUKA administered (vehicle as in Example 9) intraperitoneally about 30 minutes before receiving an injection of KA (30 mg/kg, i.p.). All of the mice were killed 24 hours later, their brains removed and the hippocampus dissected. HSP72 protein levels were determined in sodium dodecylsulfate (SDS)-solubilized hippocampal lysates by SDS-PAGE electrophoretic separation and subsequent Western blot analysis using antibodies specific for HSP72/73 proteins. Immunoreactive bands were visualized on film using enhanced chemiluminescence and quantitated by image analysis.
In general terms: In western blotting, separated proteins are transferred to a membrane and probed.

Setting [8] is: depolarizing conditions (135 mM KCl), read-out: IC50 (μM) [3H]BTX binding, values in parentheses.
The mark [9] stands for this setting: non-depolarizing conditions, none = no displacement at 100 μM, read-out: IC50 (μM) [3H]BTX binding.

Read-outs that look alike come from different tables or passages of the source.

As for `NC1CCN(O)C1=O` (racemic) [(±)HA-966, 3-amino-1-hydroxypyrrolidin-2-one], the “rotarod performance (ataxia/incoordination)” value in the data set on naive C57BL/6 mice is “impaired in their ability to remain on the rotarod at all time points tested”. Further, the “ethanol withdrawal seizure severity” value in data set [1] is on record as “did not significantly reduce seizure severity”.
In the case of `CN1C(=O)CN=C(c2ccccc2)c2cc(Cl)ccc21` [diazepam, reference compound], the “rotarod performance (ataxia/incoordination)” value in the data set on naive Swiss-Webster mice was “produced significant incoordination”. The “duration of ethanol-induced loss of righting reflex (LORR)” value in the data set with Swiss-Webster mice was “significant (*P<0.05) enhancement”.
A word on the IC50: it is the concentration needed to halve the response being measured. In the case of `O=C(O)c1cc(=O)c2c(Cl)cc(Cl)cc2[nH]1` [5,7-DCKA, 5,7-dichlorokynurenate, reference compound], the “IC50 (μM) [3H]BTX binding” value in data set [2] (non-depolarizing conditions, none = no displacement at 100 μM) is given as “none”. The “reversal by glycine of inhibition of NMDA-induced currents” value in [3] and in [4] was “competitively antagonizes NMDA receptors regardless of subunit composition” in each case. This compound returned a 50% inhibitory concentration (IC50) in data set [5] of 0.11 µM.
For `NC(=O)N1c2ccccc2C=Cc2ccccc21` [Carbamazepine, carbamazepine, reference compound], the IC50 in [2] (setting [8]) was 56 µM; in data set [2] (setting [9]), 71 µM. For the same compound, in [6], the “IC50 (μM) [3H]5,7-DCKA binding” value was “none*”. The “ethanol withdrawal seizure severity” value in [1] is “no significant reduction of severity or the duration of the signs of withdrawal”.
With `COc1ccccc1N(C(=O)Nc1cc(C(=O)O)nc2cc(Cl)cc(Cl)c12)c1ccccc1` [MeO-DCUKA], the “KA-induced increase in HSP72 protein levels” value in data set [7] is reported as “prevented”. The values for the 50% inhibitory concentration (IC50) in data set [2] (setting [8]), in data set [2] (setting [9]) and in data set [5] were 30 µM, 64 µM and 35 µM, respectively.
On to `O=C(O)c1cc(O)c2ccc(Cl)cc2n1` [7-Cl kynurenic acid], for which, in data set [1], the “ethanol withdrawal seizure severity” value was “did not significantly reduce seizure severity”.
